Results from PubChem BioAssay (NCI).
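GI50: concentration for 50% inhibition of growth. The concentration for full growth arrest is given as TGI.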

Legend:
Assay in all cases: NCI tumour cell line growth inhibition, 384-well format; in the data active = GI50 below about 0.43 µM; inactive = the rest
HCT-15 colon = tested on: HCT-15 colon
SNB-19 CNS = tested on: SNB-19 CNS
SK-MEL-5 melanoma = tested on: SK-MEL-5 melanoma
SF-268 CNS = tested on: SF-268 CNS
SF-539 CNS = tested on: SF-539 CNS
MCF7 breast = tested on: MCF7 breast
BT-549 breast = tested on: BT-549 breast
MDA-MB-468 breast = tested on: MDA-MB-468 breast
UACC-257 melanoma = tested on: UACC-257 melanoma
COLO 205 colon = tested on: COLO 205 colon
DU-145 prostate = tested on: DU-145 prostate
LOX IMVI melanoma = tested on: LOX IMVI melanoma
SN12C renal = tested on: SN12C renal
HOP-92 NSCLC = tested on: HOP-92 NSCLC
T-47D breast = tested on: T-47D breast
HCT-116 colon = tested on: HCT-116 colon
SK-MEL-28 melanoma = tested on: SK-MEL-28 melanoma
NCI-H322M lung = tested on: NCI-H322M lung
OVCAR-5 ovarian = tested on: OVCAR-5 ovarian
HT29 colon = tested on: HT29 colon
HOP-62 NSCLC = tested on: HOP-62 NSCLC
ACHN renal = tested on: ACHN renal
UO-31 renal = tested on: UO-31 renal
PC-3 prostate = tested on: PC-3 prostate
A549 NSCLC = tested on: A549 NSCLC
SW-620 colon = tested on: SW-620 colon
RXF 393 renal = tested on: RXF 393 renal
786-0 renal = tested on: 786-0 renal
UACC-62 melanoma = tested on: UACC-62 melanoma
NCI-H23 lung = tested on: NCI-H23 lung
NCI-H226 lung = tested on: NCI-H226 lung
EKVX NSCLC = tested on: EKVX NSCLC
NCI/ADR-RES ovarian = tested on: NCI/ADR-RES ovarian
MALME-3M melanoma = tested on: MALME-3M melanoma
SNB-75 CNS = tested on: SNB-75 CNS
OVCAR-4 ovarian = tested on: OVCAR-4 ovarian
HCC-2998 colon = tested on: HCC-2998 colon
NCI-H522 lung = tested on: NCI-H522 lung
MDA-MB-435 melanoma = tested on: MDA-MB-435 melanoma
HS 578T breast = tested on: HS 578T breast
SF-295 CNS = tested on: SF-295 CNS
TK-10 renal = tested on: TK-10 renal
NCI-H460 NSCLC = tested on: NCI-H460 NSCLC
KM12 colon = tested on: KM12 colon
A498 renal = tested on: A498 renal
OVCAR-8 ovarian = tested on: OVCAR-8 ovarian
MOLT-4 leukemia = tested on: MOLT-4 leukemia
M14 melanoma = tested on: M14 melanoma
OVCAR-3 ovarian = tested on: OVCAR-3 ovarian
K-562 leukemia = tested on: K-562 leukemia
U251 glioblastoma = tested on: U251 glioblastoma
RPMI-8226 leukemia = tested on: RPMI-8226 leukemia
CAKI-1 renal = tested on: CAKI-1 renal
MDA-MB-231 breast = tested on: MDA-MB-231 breast
SK-OV-3 ovarian = tested on: SK-OV-3 ovarian
IGROV1 ovarian = tested on: IGROV1 ovarian
HL-60(TB) leukemia = tested on: HL-60(TB) leukemia
CCRF-CEM leukemia = tested on: CCRF-CEM leukemia

C[C@H](c1ccc(F)cc1CCCC(=O)O)N(c1cc(F)ccc1F)S(=O)(=O)c1ccc(Cl)cc1
44.6 µM: TGI (HOP-92 NSCLC)
49.7 µM: TGI (SF-295 CNS)
37.1 µM: TGI (HOP-62 NSCLC)
inactive: GI50 (HCT-15 colon) 22.4 µM | GI50 (SNB-19 CNS) 35.9 µM | GI50 (SK-MEL-5 melanoma) 13.1 µM | GI50 (SF-268 CNS) 14 µM | GI50 (SF-539 CNS) 23.8 µM | GI50 (MCF7 breast) 22.7 µM | GI50 (BT-549 breast) 18.8 µM | GI50 (MDA-MB-468 breast) 5.35 µM | GI50 (UACC-257 melanoma) 13.6 µM | GI50 (COLO 205 colon) 30.1 µM | GI50 (DU-145 prostate) 28.2 µM | GI50 (LOX IMVI melanoma) 19 µM | GI50 (SN12C renal) 28.8 µM | GI50 (HOP-92 NSCLC) 13.5 µM | GI50 (T-47D breast) 2.26 µM | GI50 (HCT-116 colon) 20.2 µM | GI50 (SK-MEL-28 melanoma) 46 µM | GI50 (NCI-H322M lung) 25.6 µM | GI50 (OVCAR-5 ovarian) 38.5 µM | GI50 (HT29 colon) 31.3 µM | GI50 (HOP-62 NSCLC) 16.4 µM | GI50 (ACHN renal) 30.4 µM | GI50 (UO-31 renal) 15.7 µM | GI50 (PC-3 prostate) 22.7 µM | GI50 (A549 NSCLC) 16.1 µM | GI50 (SW-620 colon) 32.8 µM | GI50 (RXF 393 renal) 27.9 µM | GI50 ([…]-0 renal) 28.9 µM | GI50 (UACC-62 melanoma) 16.9 µM | GI50 (NCI-H23 lung) 14.9 µM | GI50 (NCI-H226 lung) 25.2 µM | GI50 (EKVX NSCLC) 21.6 µM | GI50 (NCI/ADR-RES ovarian) 32 µM | GI50 (MALME-3M melanoma) 23.7 µM | GI50 (SNB-75 CNS) 26.2 µM | GI50 (OVCAR-4 ovarian) 26 µM | GI50 (HCC-2998 colon) 1.41 µM | GI50 (NCI-H522 lung) 27.9 µM | GI50 (MDA-MB-435 melanoma) 24 µM | GI50 (HS 578T breast) 12.2 µM | GI50 (SF-295 CNS) 17.7 µM | GI50 (TK-10 renal) 31.1 µM | GI50 (NCI-H460 NSCLC) 17.2 µM | GI50 (KM12 colon) 28.7 µM | GI50 (A498 renal) 20.2 µM | GI50 (OVCAR-8 ovarian) 32.1 µM | GI50 (MOLT-4 leukemia) 11.7 µM | GI50 (M14 melanoma) 21.4 µM | GI50 (OVCAR-3 ovarian) 17.9 µM | GI50 (K-562 leukemia) 27.1 µM | GI50 (U251 glioblastoma) 19.9 µM | GI50 (RPMI-8226 leukemia) 19.4 µM | GI50 (CAKI-1 renal) 45.9 µM | GI50 (MDA-MB-231 breast) 34 µM | GI50 (SK-OV-3 ovarian) 32.8 µM | GI50 (IGROV1 ovarian) 30.5 µM | GI50 (HL-60(TB) leukemia) 19.1 µM | GI50 (CCRF-CEM leukemia) 12.3 µM
36.6 µM: TGI (RPMI-8226 leukemia)
> 100 µM: TGI (SNB-19 CNS) | TGI (COLO 205 colon) | TGI (DU-145 prostate) | TGI (SN12C renal) | TGI (SK-MEL-28 melanoma) | TGI (NCI-H322M lung) | TGI (OVCAR-5 ovarian) | TGI (HT29 colon) | TGI (ACHN renal) | TGI (SW-620 colon) | TGI (RXF 393 renal) | TGI (786-0 renal) | TGI (NCI/ADR-RES ovarian) | TGI (MALME-3M melanoma) | TGI (SNB-75 CNS) | TGI (OVCAR-4 ovarian) | TGI (TK-10 renal) | TGI (KM12 colon) | TGI (OVCAR-8 ovarian) | TGI (K-562 leukemia) | TGI (CAKI-1 renal) | TGI (MDA-MB-231 breast) | TGI (SK-OV-3 ovarian) | TGI (IGROV1 ovarian)
66.2 µM: TGI (SF-539 CNS)
16.3 µM: TGI (HCC-2998 colon)
49.4 µM: TGI (U251 glioblastoma)
24.2 µM: TGI (MOLT-4 leukemia)
26.5 µM: TGI (CCRF-CEM leukemia)
76 µM: TGI (NCI-H226 lung)
33.3 µM: TGI (HS 578T breast)
43.8 µM: TGI (HCT-116 colon)
33.8 µM: TGI (NCI-H460 NSCLC)
63.1 µM: TGI (EKVX NSCLC)
69.3 µM: TGI (A498 renal)
30.3 µM: TGI (MDA-MB-468 breast)
42 µM: TGI (BT-549 breast)
95.5 µM: TGI (HCT-15 colon)
29.7 µM: TGI (SK-MEL-5 melanoma)
34.2 µM: TGI (SF-268 CNS)
45.6 µM: TGI (LOX IMVI melanoma)
53.8 µM: TGI (MDA-MB-435 melanoma)
46.2 µM: TGI (A549 NSCLC)
88.9 µM: TGI (MCF7 breast)
76.3 µM: TGI (NCI-H522 lung)
70.5 µM: TGI (M14 melanoma)
26.6 µM: TGI (T-47D breast)
38 µM: TGI (OVCAR-3 ovarian)
41.6 µM: TGI (NCI-H23 lung)
40.4 µM: TGI (UACC-62 melanoma)
33 µM: TGI (UO-31 renal)
33.6 µM: TGI (HL-60(TB) leukemia)
68.4 µM: TGI (UACC-257 melanoma)
66.8 µM: TGI (PC-3 prostate)
